Source: ChEMBL document CHEMBL1131823, “Triterpene and diterpene inhibitors of pyruvate dehydrogenase kinase (PDK)” (Bioorg Med Chem Lett, 1999)

Experiments:
[1] = target: Pyruvate dehydrogenase kinase (Homo sapiens, UniProt Q15119+Q15120+Q16654+Q15118); test: In vitro inhibitory activity against pyruvate dehydrogenase kinase was determined; type: protein assay
[2] = species on record: Homo sapiens; test: In vitro effective concentration in normal human dermal fibroblasts; Inactive; type: functional
[3] = test system: Mus musculus; test: In vivo activity in a diabetic mouse at a dose of 100 umol/kg/day on day 3 after 6 hr; type: functional
[4] = test system: Mus musculus; test: In vivo activity in a diabetic mouse at a dose of 100 umol/kg/day on day1 after 6 hr; type: functional
[5] = test system: Mus musculus; test: In vivo activity in a diabetic mouse at a dose of 100 umol/kg/day on day 3 after 4 hr; type: functional
[6] = test system: Mus musculus; test: In vivo activity in a diabetic mouse at a dose of 100 umol/kg/day on day 3 after 2 hr; type: functional
[7] = test system: Mus musculus; test: In vivo activity in a diabetic mouse at a dose of 100 umol/kg/day on day1 after 4 hr; type: functional
[8] = test system: Mus musculus; test: In vivo activity in a diabetic mouse at a dose of 100 umol/kg/day on day1 after 2 hr; type: functional
[9] = test system: Mus musculus; test: In vivo activity in a diabetic mouse at a dose of 30 umol/kg/day on day 3 after 2 hr; type: functional
[10] = test system: Mus musculus; test: In vivo activity in a diabetic mouse at a dose of 30 umol/kg/day on day 3 after 4 hr; type: functional
[11] = test system: Mus musculus; test: In vivo activity in a diabetic mouse at a dose of 30 umol/kg/day on day1 after 4 hr; type: functional
[12] = test system: Rattus norvegicus; test: Effect on blood lactate level after 4 hours of oral administration of compound at a dose of 300 umol/kg; type: functional
[13] = test system: Rattus norvegicus; test: Effect on blood glucose level after 4 hours of oral administration of compound at a dose of 300 umol/kg; type: functional
[14] = test system: Mus musculus; test: In vivo activity in a diabetic mouse at a dose of 300 umol/kg/day on day1 after 6 hr; type: functional
[15] = test system: Mus musculus; test: In vivo activity in a diabetic mouse at a dose of 30 umol/kg/day on day1 after 6 hr; type: functional
[16] = test system: Mus musculus; test: In vivo activity in a diabetic mouse at a dose of 300 umol/kg/day on day1 after 2 hr; type: functional
[17] = test system: Mus musculus; test: In vivo activity in a diabetic mouse at a dose of 30 umol/kg/day on day 3 after 6 hr; type: functional
[18] = test system: Rattus norvegicus; test: Effect on blood lactate level after 2 hours of oral administration of compound at a dose of 300 umol/kg; type: functional
[19] = test system: Mus musculus; test: In vivo activity in a diabetic mouse at a dose of 300 umol/kg/day on day 3 after 2 hr; type: functional
[20] = test system: Rattus norvegicus; test: Effect on blood lactate level after 0 hour of oral administration of compound at a dose of 300 umol/kg; type: functional
[21] = test system: Mus musculus; test: In vivo activity in a diabetic mouse at a dose of 300 umol/kg/day on day 3 after 6 hr; type: functional
[22] = test system: Rattus norvegicus; test: Effect on blood glucose level after 2 hours of oral administration of compound at a dose of 300 umol/kg; type: functional
[23] = In vitro effective concentration in normal human dermal fibroblasts; type: functional
[24] = test system: Mus musculus; test: In vivo activity in a diabetic mouse at a dose of 30 umol/kg/day on day1 after 2 hr; type: functional
[25] = test system: Mus musculus; test: In vivo activity in a diabetic mouse at a dose of 300 umol/kg/day on day1 after 4 hr; type: functional
[26] = test system: Mus musculus; test: In vivo activity in a diabetic mouse at a dose of 300 umol/kg/day on day 3 after 4 hr; type: functional
[27] = test system: Rattus norvegicus; test: Effect on blood glucose level after 0 hour of oral administration of compound at a dose of 300 umol/kg; type: functional
[28] = test system: Mus musculus; test: In vivo activity in a diabetic mouse at a dose of 200 umol/kg/day on day1 after 6 hr; type: functional
[29] = test system: Mus musculus; test: In vivo activity in a diabetic mouse at a dose of 200 umol/kg/day on day1 after 4 hr; type: functional
[30] = test system: Mus musculus; test: In vivo activity in a diabetic mouse at a dose of 200 umol/kg/day on day 3 after 6 hr; type: functional
[31] = test system: Mus musculus; test: In vivo activity in a diabetic mouse at a dose of 200 umol/kg/day on day 3 after 4 hr; type: functional
[32] = test system: Mus musculus; test: In vivo activity in a diabetic mouse at a dose of 200 umol/kg/day on day1 after 2 hr; type: functional
[33] = test system: Mus musculus; test: In vivo activity in a diabetic mouse at a dose of 200 umol/kg/day on day 3 after 2 hr; type: functional
[34] = test system: Mus musculus; test: In vivo activity in a diabetic mouse at a dose of 1000 umol/kg/day on day1 after 6 hr; type: functional
[35] = test system: Mus musculus; test: In vivo activity in a diabetic mouse at a dose of 1000 umol/kg/day on day1 after 4 hr; type: functional
[36] = test system: Mus musculus; test: In vivo activity in a diabetic mouse at a dose of 1000 umol/kg/day on day1 after 2 hours; type: functional
[37] = test system: Mus musculus; test: In vivo activity in a diabetic mouse at a dose of 1000 umol/kg/day on day 3 after 2 hr; type: functional
[38] = test system: Mus musculus; test: In vivo activity in a diabetic mouse at a dose of 1000 umol/kg/day on day 3 after 6 hr; type: functional
[39] = test system: Mus musculus; test: In vivo activity in a diabetic mouse at a dose of 1000 umol/kg/day on day 3 after 4 hr; type: functional

Question: With `C[C@]12CC[C@H]3[C@@H](CCC4=C/C(=N/O)CC[C@@H]43)[C@@H]1CC[C@@H]2O` as the molecule, how does the IC50 [1] read?
Answer: Its IC50 is 5.4 µM.

Question: With `C[C@]12CC/C(=N\O)C[C@@H]1CC[C@@H]1[C@@H]2CC[C@]2(C)[C@@H](O)CC[C@@H]12` as the molecule, how does the IC50 [1] read?
Answer: Its IC50 is 51 µM.

Question: Which EC50 [2] does the source give for `CC(C)C1=CC2=CC[C@H]3[C@](C)(CO)CCC[C@]3(C)[C@H]2CC1` here?
Answer: The EC50 was “Not Active”.

Question: And the Efficacy [3]?
Answer: The Efficacy was 24%.

Question: What about the Efficacy [4] of the same molecule?
Answer: The Efficacy was 19%.

Question: What about the Efficacy [5] of the same molecule?
Answer: Its Efficacy is 10%.

Question: What about the Efficacy [6] of the same molecule?
Answer: The Efficacy was 7%.

Question: What about the IC50 [1] of the same molecule?
Answer: The IC50 was ~ 10 uM.

Question: What about the Efficacy [7] of the same molecule?
Answer: Its Efficacy is -8%.

Question: What about the Efficacy [8] of the same molecule?
Answer: The Efficacy was 7%.

Question: With `C[C@]12CC[C@H]3[C@@H](CCC4=C/C(=N/CC(=O)O)CC[C@@H]43)[C@@H]1CC[C@@H]2O` as the molecule, how does the IC50 [1] read?
Answer: Its IC50 is 56 µM.

Question: Which IC50 [1] does the source give for `C#C[C@]1(O)CC[C@H]2[C@@H]3CCC4=C/C(=N/O)CC[C@@H]4[C@H]3CC[C@@]21C` here?
Answer: The IC50 was 5.8 µM.

Question: Which results are given for `C=C=C[C@]1(O)CC[C@H]2[C@@H]3CCC4=C/C(=N/O)CC[C@@H]4[C@H]3CC[C@@]21C`?
Answer: Efficacy [9]: 38%; Efficacy [10]: 43%; EC50 [2]: Not Active; Efficacy [11]: -3%; Efficacy [3]: 47%; Blood lactate [12]: 0.79 mM; Blood glucose [13]: 49.3 mg/dL; Efficacy [4]: 26%; Efficacy [14]: 51%; Efficacy [5]: 70%; Efficacy [6]: 73%; Efficacy [15]: 2%; Efficacy [16]: -2%; Efficacy [17]: -6%; Blood lactate [18]: 0.8 mM; Efficacy [19]: 92%; Blood lactate [20]: 1.01 mM; IC50 [1]: 0.84 µM; Efficacy [21]: 75%; Blood glucose [22]: 49.1 mg/dL; EC50 [23]: 1.7 µM; Efficacy [24]: -6%; Efficacy [25]: 19%; Efficacy [26]: 83%; Blood glucose [27]: 49.5 mg/dL; Efficacy [7]: 4%; Efficacy [8]: 3%

Question: With `CC(C)c1ccc2c(c1)CC[C@H]1[C@](C)(CN)CCC[C@]21C` as the molecule, how does the Efficacy [9] read?
Answer: Its Efficacy is -4%.

Question: And the Efficacy [10]?
Answer: The Efficacy was 2%.

Question: What about the EC50 [2] of the same molecule?
Answer: Its EC50 is “Not Active”.

Question: And the Efficacy [11]?
Answer: Its Efficacy is -1%.

Question: And the Efficacy [3]?
Answer: The Efficacy was 47%.

Question: And the Efficacy [4]?
Answer: The Efficacy was 22%.

Question: And the Efficacy [14]?
Answer: The Efficacy was 65%.

Question: And the Efficacy [5]?
Answer: Its Efficacy is 36%.

Question: What about the Efficacy [6] of the same molecule?
Answer: The Efficacy was 26%.

Question: And the Efficacy [15]?
Answer: The Efficacy was 11%.

Question: And the Efficacy [16]?
Answer: The Efficacy was 68%.

Question: And the Efficacy [17]?
Answer: Its Efficacy is 19%.

Question: What about the Efficacy [19] of the same molecule?
Answer: The Efficacy was 85%.

Question: What about the IC50 [1] of the same molecule?
Answer: The IC50 was 9.5 µM.

Question: What about the Efficacy [21] of the same molecule?
Answer: Its Efficacy is 90%.

Question: And the Efficacy [24]?
Answer: The Efficacy was 18%.

Question: What about the Efficacy [25] of the same molecule?
Answer: The Efficacy was 69%.

Question: What about the Efficacy [26] of the same molecule?
Answer: The Efficacy was 86%.

Question: And the Efficacy [7]?
Answer: Its Efficacy is 28%.

Question: And the Efficacy [8]?
Answer: The Efficacy was 30%.

Question: Which EC50 [2] does the source give for `CC(C)C1=CC2=CC[C@@H]3[C@](C)(CCC[C@@]3(C)C(N)=O)[C@H]2CC1` here?
Answer: The EC50 was “Not Active”.

Question: What about the Efficacy [28] of the same molecule?
Answer: The Efficacy was 16%.

Question: What about the Efficacy [29] of the same molecule?
Answer: The Efficacy was -2%.

Question: What about the Efficacy [30] of the same molecule?
Answer: Its Efficacy is 16%.

Question: What about the Efficacy [31] of the same molecule?
Answer: The Efficacy was 9%.

Question: What about the IC50 [1] of the same molecule?
Answer: Its IC50 is 6.7 µM.

Question: And the Efficacy [32]?
Answer: Its Efficacy is 4%.

Question: What about the Efficacy [33] of the same molecule?
Answer: The Efficacy was 13%.

Question: With `C[C@]12CC/C(=N\O)C[C@H]1CC[C@@H]1[C@@H]2CC[C@]2(C)[C@@H](O)CC[C@@H]12` as the molecule, how does the IC50 [1] read?
Answer: The IC50 was 36 µM.

Question: What does the source list for `CC(C)C1=CC2=CC[C@@H]3[C@](C)(CCC[C@@]3(C)C(=O)O)[C@H]2CC1` [ABIETIC ACID]?
Answer: EC50 [2]: Not Active; Efficacy [28]: 42%; Efficacy [29]: 25%; Efficacy [30]: 29%; Efficacy [31]: 22%; IC50 [1]: 20 µM; Efficacy [32]: 45%; Efficacy [33]: 24%

Question: Which Efficacy [34] does the source give for `O=C(O)C(Cl)Cl` [DICHLOROACETIC ACID] here?
Answer: The Efficacy was 29%.

Question: What about the Efficacy [35] of the same molecule?
Answer: Its Efficacy is 39%.

Question: What about the Efficacy [36] of the same molecule?
Answer: Its Efficacy is 59%.

Question: And the Efficacy [37]?
Answer: Its Efficacy is 52%.

Question: What about the Efficacy [38] of the same molecule?
Answer: The Efficacy was 56%.

Question: What about the EC50 [23] of the same molecule?
Answer: The EC50 was 100 µM.

Question: What about the Efficacy [39] of the same molecule?
Answer: Its Efficacy is 50%.

Question: With `C[C@]12CC[C@H]3[C@@H](CCC4=CC(=O)CC[C@@H]43)[C@@H]1CC[C@@H]2O` [NANDROLONE] as the molecule, how does the IC50 [1] read?
Answer: Its IC50 is 120 µM.
